{
  "source": "patent US20080311232A1",
  "about": "“Cooling Compounds” (Givaudan, SA, priority 2007, published 2008)",
  "type_in_all_cases": "in vivo, human",
  "key": {"[1]": {"test_system": "panelists", "assay": "Cooling intensity: panelists taste aqueous solutions, compared with menthol at 2 ppm", "settings": "tasted by small group of panelists"}, "[2]": {"test_system": "panelist", "assay": "Application in toothpaste: toothgel brushed on a panelist's teeth, cooling perception", "settings": "for cooling perception rated higher than the control: control = peppermint oil toothgel", "description": "The materials were mixed in the toothgel, a piece of toothgel was put on a toothbrush and a panelist's teeth were brushed. The mouth was rinsed with water and the water spat out. […] The cooling perception lasted for 40 minutes.\nThe materials were mixed in the toothgel, a piece of toothgel was put on a toothbrush and a panelist's teeth were brushed. The mouth was rinsed with water and the water spat out. […] The cooling perception was rated 24% higher than the control and lasted for 70 minutes.\nThe materials were mixed in the toothgel, a piece of toothgel was put on a toothbrush and a panelist's teeth were brushed. The mouth was rinsed with water and the water spat out. […] The cooling perception was rated 18% higher than the control and lasted for 60 minutes.\nThe materials were mixed in the toothgel, a piece of toothgel was put on a toothbrush and a panelist's teeth were brushed. The mouth was rinsed with water and the water spat out. […] The cooling perception was rated 95% higher than the control and lasted for 65 minutes.\nThe materials were mixed in the toothgel, a piece of toothgel was put on a toothbrush and a panelist's teeth were brushed. The mouth was rinsed with water and the water spat out. […] The cooling perception was rated 100% higher than the control and lasted for 40 minutes.\nThe materials were mixed in the toothgel, a piece of toothgel was put on a toothbrush and a panelist's teeth were brushed. The mouth was rinsed with water and the water spat out. […] The cooling perception was rated 30% higher than the control and lasted for over 35 minutes."}, "[3]": {"test_system": "panelist", "assay": "Application in chewing gum: 2 g gum chewed by a panelist for 20 minutes, cooling perception", "settings": "for cooling perception rated higher than the control: control = peppermint oil gum", "description": "The gum base, and half of the sorbitol were mixed, maltitol syrup was added and then mixed with the gum mass. The rest of the powdered ingredients (rest of the sorbitol, mannitol, ace-K, aspartame) were added and mixed for about 1 minute, at which point glycerine was added and the gum mass was mixed for about 5 minutes, to form the blank chewing gum mass. Peppermint oil was worked into the mass and a piece of the resulting gum (2 g) was chewed by a panelist for […] and spat out. […] The cooling perception lasted far 50 minutes.\nThe chemical in the peppermint oil was worked into the blank chewing gum mass from Example 12 a) and a piece of the resulting gum (2 g) was chewed by a panelist for 20 minutes and spat out. […] The cooling perception was rated 43% higher than the control and lasted for over 60 minutes.\nThe chemical and peppermint oil was worked into the blank chewing gum mass from Example 12 a) and a piece of the resulting gum (2 g) was chewed by a panelist for 20 minutes and spat out. […] The cooling perception was rated 40% higher than the control and lasts for over 60 minutes.\nThe chemical in the peppermint oil was worked into the blank chewing gum mass from Example 12 a) and a piece of the resulting gum (2 g) was chewed by a panelist for 20 minutes and spat out. […] The cooling perception was rated 27% higher than the control and lasted for over 60 minutes."}, "[4]": {"settings": "toothgel: 0.10 g of 1% solution of compound in peppermint oil + 0.40 g peppermint oil"}, "[5]": {"settings": "toothgel: 0.50 g of 1% solution of compound in peppermint oil"}, "[6]": {"settings": "chewing gum: 0.50 g of 1% solution of compound in peppermint oil"}, "[7]": {"settings": "toothgel: 0.025 g compound + 0.50 g peppermint oil"}, "[8]": {"settings": "toothgel: 0.05 g of 1% solution of compound in peppermint oil + 0.45 g peppermint oil"}, "[9]": {"settings": "chewing gum: 0.05 g of 1% solution of compound in peppermint oil + 0.45 g peppermint oil"}},
  "data": [
    {"smiles": "CCOC(=O)CC(=O)O[C@@H]1C2(C)CCC(C2)C1(C)C", "note": "(stereo partly drawn) [Example 6, Ethyl (2R)-1,3,3-trimethylbicyclo[2.2.1]heptan-2-yl malonate]", "values": [
      {"measurement": "Concentration with a cooling intensity similar to or slightly higher than that of a solution of menthol at 2 ppm", "setting": "[1]", "result": 0.10, "unit": "ppm"},
      {"measurement": "cooling sensation felt", "setting": "[2]; [4]", "result": "intense cooling sensation"},
      {"measurement": "duration of cooling perception", "setting": "[2]; [4]", "result": 60, "unit": "min"},
      {"measurement": "cooling perception rated higher than the control", "setting": "[2]; [4]", "result": 18, "unit": "%"},
      {"measurement": "cooling sensation felt", "setting": "[2]; [5]", "result": "intense cooling sensation"},
      {"measurement": "duration of cooling perception", "setting": "[2]; [5]", "result": 65, "unit": "min"},
      {"measurement": "cooling perception rated higher than the control", "setting": "[2]; [5]", "result": 95, "unit": "%"},
      {"measurement": "cooling sensation felt", "setting": "[3]; [6]", "result": "cooling sensation"},
      {"measurement": "duration of cooling perception", "setting": "[3]; [6]", "result": "over 60 minutes"},
      {"measurement": "cooling perception rated higher than the control", "setting": "[3]; [6]", "result": 27, "unit": "%"}
    ]},
    {"smiles": "C[C@@H](N)C(=O)OC1C2(C)CCC(C2)C1(C)C", "note": "(stereo partly drawn) [Example 8, D-alanine fenchyl ester]", "values": [
      {"measurement": "Concentration with a cooling intensity similar to or slightly higher than that of a solution of menthol at 2 ppm", "setting": "[1]", "result": 0.20, "unit": "ppm"},
      {"measurement": "cooling sensation felt", "setting": "[2]; [7]", "result": "intense cooling sensation"},
      {"measurement": "duration of cooling perception", "setting": "[2]; [7]", "result": "over 35 minutes"},
      {"measurement": "cooling perception rated higher than the control", "setting": "[2]; [7]", "result": 30, "unit": "%"}
    ]},
    {"smiles": "CC1(C)[C@H]2CC[C@](C)(C2)[C@H]1OC(=O)CCC(=O)O", "note": "[Example 9, 4-oxo-4-((1R,2R,4S)-1,3,3-trimethylbicyclo[2.2.1]heptan-2-yloxy)butanoic acid]", "values": [
      {"measurement": "Concentration with a cooling intensity similar to or slightly higher than that of a solution of menthol at 2 ppm", "setting": "[1]", "result": 0.10, "unit": "ppm"}
    ]},
    {"smiles": "CC(C)[C@@H]1CC[C@@H](C)C[C@H]1O", "note": "[l-Menthol, reference compound]", "values": [
      {"measurement": "Concentration with a cooling intensity similar to or slightly higher than that of a solution of menthol at 2 ppm", "setting": "[1]", "result": 2.0, "unit": "ppm"}
    ]},
    {"smiles": "CN(C)C(=O)CCC(=O)O[C@@H]1C2(C)CCC(C2)C1(C)C", "note": "(stereo partly drawn) [Example 7, (2R)-1,3,3-trimethylbicyclo[2.2.1]heptan-2-yl 4-(dimethylamino)-4-oxobutanoate]", "values": [
      {"measurement": "Concentration with a cooling intensity similar to or slightly higher than that of a solution of menthol at 2 ppm", "setting": "[1]", "result": 0.002, "unit": "ppm"}
    ]},
    {"smiles": "CCNC(=O)C1CC(C)CCC1C(C)C", "note": "(centres unmarked) [WS-3, N-ethyl p-menthanecarboxamide, reference compound]", "values": [
      {"measurement": "Concentration with a cooling intensity similar to or slightly higher than that of a solution of menthol at 2 ppm", "setting": "[1]", "result": 1.5, "unit": "ppm"}
    ]},
    {"smiles": "O=C(O)CCC(=O)O[C@H]1C[C@@H]2CC[C@H]1C2", "note": "[Example 3, 4-((1S,2S,4R)-bicyclo[2.2.1]heptan-2-yloxy)-4-oxobutanoic acid]", "values": [
      {"measurement": "cooling sensation felt", "setting": "[2]; [4]", "result": "intense cooling sensation"},
      {"measurement": "duration of cooling perception", "setting": "[2]; [4]", "result": 70, "unit": "min"},
      {"measurement": "cooling perception rated higher than the control", "setting": "[2]; [4]", "result": 24, "unit": "%"},
      {"measurement": "cooling sensation felt", "setting": "[3]; [6]", "result": "cooling sensation"},
      {"measurement": "duration of cooling perception", "setting": "[3]; [6]", "result": "over 60 minutes"},
      {"measurement": "cooling perception rated higher than the control", "setting": "[3]; [6]", "result": 43, "unit": "%"}
    ]},
    {"smiles": "CC1(C)[C@H]2CC[C@]1(C)[C@H](OC(=O)CCC(=O)O)C2", "note": "[Example 1, 4-oxo-4-(1S,2R,4S)1,7,7-trimethylbicyclo[2.2.1]heptan-2-yloxybutanoic acid]", "values": [
      {"measurement": "Concentration with a cooling intensity similar to or slightly higher than that of a solution of menthol at 2 ppm", "setting": "[1]", "result": 0.003, "unit": "ppm"}
    ]},
    {"smiles": "CC1(C)[C@@H]2CC[C@@]1(C)[C@H](OC(=O)CCC(=O)O)C2", "note": "[Example 4, 4-oxo-4-((1R,2R,4R)-1,7,7-trimethylbicyclo[2.2.1]heptan-2-yloxy)butanoic acid]", "values": [
      {"measurement": "Concentration with a cooling intensity similar to or slightly higher than that of a solution of menthol at 2 ppm", "setting": "[1]", "result": 0.001, "unit": "ppm"},
      {"measurement": "cooling sensation felt", "setting": "[2]; [8]", "result": "intense cooling sensation"},
      {"measurement": "duration of cooling perception", "setting": "[2]; [8]", "result": 40, "unit": "min"},
      {"measurement": "cooling perception rated higher than the control", "setting": "[2]; [8]", "result": 100, "unit": "%"},
      {"measurement": "cooling sensation felt", "setting": "[3]; [9]", "result": "cooling sensation"},
      {"measurement": "duration of cooling perception", "setting": "[3]; [9]", "result": "over 60 minutes"},
      {"measurement": "cooling perception rated higher than the control", "setting": "[3]; [9]", "result": 40, "unit": "%"}
    ]}
  ]
}
